The values that follow come from PubChem BioAssay AID192 (DTP/NCI, 2004).

Values joined by “and” are separate entries in the source; they are usually repeats but may differ in a detail not shown here. Identical values can stand only once. Inconclusive results and toxic doses are left out.

The assay relates to BDF1 mice, B16 melanoma ip, median survival T/C. Kind of assay: NCI In Vivo Anticancer Drug Screen. Data for tumor model B16 Melanoma (intraperitoneal) in B6D2F1 (BDF1) mice. The following applies: endpoint: median survival time, higher = longer survival. A digest of the protocol: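 Each result divides a survival or tumor-size measurement in the compound-treated group by the same measurement in the vehicle group.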

Where [1] appears, read: dose: 12.5 mg/kg/injection, schedule: Q01DX009 (ip), vehicle: saline with Tween-80.
Where [2] appears, read: dose: 25.0 mg/kg/injection, schedule: Q01DX009 (ip), vehicle: saline with Tween-80.
Setting [3] is: dose: 50.0 mg/kg/injection, schedule: Q01DX009 (ip), vehicle: saline with Tween-80.
Setting [4] is: dose: 100.0 mg/kg/injection, schedule: Q01DX009 (ip), vehicle: saline with Tween-80.
The mark [5] stands for this setting: dose: 1.0 mg/kg/injection, schedule: Q01DX009 (ip), vehicle: saline.
Setting [6] is: dose: 100.0 mg/kg/injection, schedule: Q01DX009 (ip), vehicle: Klucel (hydroxypropylcellulose) (HPC).
[7] abbreviates: dose: 200.0 mg/kg/injection, schedule: Q01DX009 (ip), vehicle: Klucel (hydroxypropylcellulose) (HPC).
Where [8] appears, read: dose: 50.0 mg/kg/injection, schedule: Q01DX009 (ip), vehicle: Klucel (hydroxypropylcellulose) (HPC).
[9] abbreviates: dose: 100.0 mg/kg/injection, schedule: Q04DX003 (ip), vehicle: Klucel (hydroxypropylcellulose) (HPC).
[10] abbreviates: dose: 200.0 mg/kg/injection, schedule: Q04DX003 (ip), vehicle: Klucel (hydroxypropylcellulose) (HPC).
Setting [11] is: dose: 400.0 mg/kg/injection, schedule: Q04DX003 (ip), vehicle: Klucel (hydroxypropylcellulose) (HPC).
Where [12] appears, read: dose: 3.13 mg/kg/injection, schedule: Q01DX009 (ip), vehicle: saline with Tween-80.
[13] abbreviates: dose: 6.25 mg/kg/injection, schedule: Q01DX009 (ip), vehicle: saline with Tween-80.

Regarding `CC(=O)NC(CCC(=O)C=[N+]=N)C(=O)O` (configuration not stated), the T/C was 113 % of control (dose: 0.01 mg/kg/injection, schedule: Q01DX009 (ip), vehicle: water); 102 % of control (dose: 0.05 mg/kg/injection, schedule: Q01DX009 (ip), vehicle: water); 106 % of control (dose: 0.1 mg/kg/injection, schedule: Q01DX009 (ip), vehicle: other); 86 % of control (dose: 0.1 mg/kg/injection, schedule: Q01DX009 (ip), vehicle: water); 90 % of control (dose: 0.2 mg/kg/injection, schedule: Q01DX009 (ip), vehicle: other); 109 % of control (dose: 10.0 mg/kg/injection, schedule: Q04DX003 (ip), vehicle: other). For the same compound, the T/C reads like this: (dose: 15.0 mg/kg/injection, schedule: Q04DX003 (ip), vehicle: water) 123 % of control; (dose: 20.0 mg/kg/injection, schedule: Q04DX003 (ip), vehicle: other) 100 % of control; (dose: 30.0 mg/kg/injection, schedule: Q04DX003 (ip), vehicle: water) 121 % of control; (dose: 40.0 mg/kg/injection, schedule: Q04DX003 (ip), vehicle: other) 106 % of control; (dose: 60.0 mg/kg/injection, schedule: Q04DX003 (ip), vehicle: water) 118 % of control.

`Cc1ccc(S(=O)(=O)NC(=S)S)cc1`: the T/C runs as follows: under setting [1], 88 % of control; under setting [2], 98 % of control and 122 % of control; under setting [3], 97 % of control; under setting [4], 92 % of control and 122 % of control.

Turning to `CC(C)(C)OC(=O)NC(CCC(=O)OCc1ccccc1)C(=O)ON1C(=O)CCC1=O` (configuration not stated), the T/C was 95 % of control under setting [3] and 90 % of control under setting [4].

`CN(CC(=O)NC(Cc1c[nH]c2ccccc12)C(=O)O)C(=O)OCc1ccccc1` (configuration not stated): the T/C by setting is: under setting [3], 113 % of control; under setting [4], 106 % of control; (dose: 200.0 mg/kg/injection, schedule: Q01DX009 (ip), vehicle: saline with Tween-80) 104 % of control; (dose: 400.0 mg/kg/injection, schedule: Q01DX009 (ip), vehicle: saline with Tween-80) 100 % of control.

Take `O=C1C(N2CCN(CCO)CC2)=C(N2CC2)C(=O)C(N2CCN(CCO)CC2)=C1N1CC1`: the T/C reads like this: (dose: 0.25 mg/kg/injection, schedule: Q01DX009 (ip), vehicle: saline) 122 % of control; (dose: 0.5 mg/kg/injection, schedule: Q01DX009 (ip), vehicle: saline) 122 % of control; under setting [5], 109 % of control.

As to `COc1cc(/C=N/NC(=O)N/N=C/c2cc(OC)c(OC)c(OC)c2)cc(OC)c1OC`, the T/C is 93 % of control under setting [6] and 90 % of control under setting [7].

`COC(=O)c1cc([N+](=O)[O-])cc2ccccc12`: the T/C was 100 % of control under setting [8], 97 % of control under setting [6] and 94 % of control under setting [7].

As for `CNC(=O)OCc1c(COC(=O)NC)c(C)n(-c2ccc(OC)cc2)c1C`, the T/C (dose: 3.12 mg/kg/injection, schedule: Q01DX009 (ip), vehicle: Klucel (hydroxypropylcellulose) (HPC)) is 113 % of control and the T/C (dose: 6.25 mg/kg/injection, schedule: Q01DX009 (ip), vehicle: Klucel (hydroxypropylcellulose) (HPC)) is 111 % of control.

Regarding `NNC(=O)c1ccc(Cl)cc1Cl`, the T/C (dose: 12.5 mg/kg/injection, schedule: Q01DX009 (ip), vehicle: Klucel (hydroxypropylcellulose) (HPC)) is 100 % of control; the T/C (dose: 12.5 mg/kg/injection, schedule: Q04DX003 (ip), vehicle: Klucel (hydroxypropylcellulose) (HPC)) was 103 % of control; the T/C (dose: 25.0 mg/kg/injection, schedule: Q01DX009 (ip), vehicle: Klucel (hydroxypropylcellulose) (HPC)) is 86 % of control; the T/C (dose: 25.0 mg/kg/injection, schedule: Q04DX003 (ip), vehicle: Klucel (hydroxypropylcellulose) (HPC)) was 93 % of control.

Consider `Cc1cc(Cl)ccc1NC(=O)c1ccc(Cl)cc1Cl`, for which the T/C was 100 % of control under setting [9], 97 % of control under setting [10] and 97 % of control under setting [11].

As to `N#CC(C#N)=CN1CCCCCC1`, the T/C reads like this: under setting [12], 107 % of control; (dose: 3.13 mg/kg/injection, schedule: Q04DX003 (ip), vehicle: saline with Tween-80) 93 % of control; under setting [13], 102 % of control; (dose: 6.25 mg/kg/injection, schedule: Q04DX003 (ip), vehicle: saline with Tween-80) 97 % of control; under setting [1], 102 % of control; (dose: 12.5 mg/kg/injection, schedule: Q04DX003 (ip), vehicle: saline with Tween-80) 100 % of control.

For `CS(=O)(=O)OCCC(=O)N1CCN(C(=O)CCOS(C)(=O)=O)CC1`, the T/C is 114 % of control (dose: 1.56 mg/kg/injection, schedule: Q01DX009 (ip), vehicle: suspension in saline); 111 % of control (dose: 3.12 mg/kg/injection, schedule: Q01DX009 (ip), vehicle: suspension in saline); 114 % of control (dose: 6.25 mg/kg/injection, schedule: Q01DX009 (ip), vehicle: suspension in saline); 124 % of control (dose: 12.5 mg/kg/injection, schedule: Q01DX009 (ip), vehicle: suspension in saline); 150 % of control under setting [2]; 152 % of control and 170 % of control under setting [3]. Also, the T/C by setting is: (dose: 50.0 mg/kg/injection, schedule: Q01DX009 (ip), vehicle: suspension in saline) 171 % of control; under setting [4], 160 % of control.

As to `CCCCCCCCCCCCCC(C)NCc1ccccc1` (configuration not stated), the T/C is, setting by setting: under setting [12], 100 % of control; under setting [13], 100 % of control; under setting [1], 100 % of control.

With `CN1CCN(Cc2c(O)ccc3c4c(c(=O)oc23)CCCC4)CC1`, the T/C is, setting by setting: (dose: 32.0 mg/kg/injection, schedule: Q01DX009 (ip), vehicle: Klucel (hydroxypropylcellulose) (HPC)) 105 % of control; (dose: 64.0 mg/kg/injection, schedule: Q01DX009 (ip), vehicle: Klucel (hydroxypropylcellulose) (HPC)) 100 % of control; (dose: 128.0 mg/kg/injection, schedule: Q01DX009 (ip), vehicle: Klucel (hydroxypropylcellulose) (HPC)) 100 % of control.

Turning to `C/C=C(\C)C(=O)OC1CC[N+]2([O-])CCC(COC(=O)/C(=C/C)CO)C12` (configuration not stated), the T/C runs as follows: (dose: 18.8 mg/kg/injection, schedule: Q01DX009 (ip), vehicle: saline) 102 % of control; (dose: 37.5 mg/kg/injection, schedule: Q01DX009 (ip), vehicle: saline) 109 % of control; (dose: 75.0 mg/kg/injection, schedule: Q01DX009 (ip), vehicle: saline) 107 % of control; (dose: 150.0 mg/kg/injection, schedule: Q01DX009 (ip), vehicle: saline) 107 % of control.

As to `CC1=C/C(=N\NS(=O)(=O)c2ccc([N+](=O)[O-])cc2)CC(C)(C)C1`, the T/C was 94 % of control under setting [8]; 93 % of control under setting [6]; 96 % of control under setting [7]; 88 % of control (dose: 400.0 mg/kg/injection, schedule: Q01DX009 (ip), vehicle: Klucel (hydroxypropylcellulose) (HPC)).

For the compound `CCOC(=O)C(NC(C)=O)C(=O)OCC`, the T/C under setting [9] is 90 % of control, the T/C under setting [10] was 102 % of control and the T/C under setting [11] is 95 % of control.

In the case of `Cc1ccc(CNc2cccc([N+](=O)[O-])c2)cc1`, the T/C by setting is: under setting [6], 100 % of control; under setting [7], 97 % of control.

For the compound `Cn1c(Cl)nc2c(Cl)nc(Cl)nc21`, the T/C by setting is: under setting [5], 105 % of control; (dose: 2.0 mg/kg/injection, schedule: Q01DX009 (ip), vehicle: saline) 100 % of control; (dose: 4.0 mg/kg/injection, schedule: Q01DX009 (ip), vehicle: saline) 97 % of control; (dose: 8.0 mg/kg/injection, schedule: Q01DX009 (ip), vehicle: saline) 95 % of control; (dose: 16.0 mg/kg/injection, schedule: Q01DX009 (ip), vehicle: saline) 92 % of control; (dose: 32.0 mg/kg/injection, schedule: Q01DX009 (ip), vehicle: saline) 92 % of control.
